# Reference: the supplement of paper PMC10307832
# Experiments:
# Assay in all cases: relative viability (nuclei count vs DMSO), 5 days (fraction); higher = more cells survive
# [1] = compound: O=S(=O)(c1ccccc1)N(CC(F)(F)F)c1ccc(C(O)(C(F)(F)F)C(F)(F)F)cc1 + C[C@@H](Oc1cc(-c2cnn(C3CCNCC3)c2)cnc1N)c1c(Cl)ccc(F)c1Cl [Crizotinib] (partner 1 µM)
# Procedure, shortened: (§1)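 Cells from lung cancer lines were seeded into 1536-well plates and, one day later, dosed by pin tool. Treatments were either a single drug or a fixed dose of an anchor drug with five library-drug doses (not always all listed) in √10 steps. After 5 days, nuclei were stained in a one-step fixation (final 0.05% Triton X-100, 1% formaldehyde, 1 ug/ml Hoechst) and counted on 4× images, and relative viability is the treated-to-vehicle nuclei ratio, as the median of duplicate plates.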
# RO-3306 + Navitoclax = compound: C1=CC2=C(C=CC(=C2)C=C3C(=O)NC(=NCC4=CC=CS4)S3)N=C1 [RO-3306] + CC1(C)CCC(c2ccc(Cl)cc2)=C(CN2CCN(c3ccc(C(=O)NS(=O)(=O)c4ccc(N[C@H](CCN5CCOCC5)CSc5ccccc5)c(S(=O)(=O)C(F)(F)F)c4)cc3)CC2)C1 [Navitoclax] (partner 0.5 µM)
# Procedure, shortened: as §1
# [2] = compound: O=S(=O)(c1ccccc1)N(CC(F)(F)F)c1ccc(C(O)(C(F)(F)F)C(F)(F)F)cc1 + CS(=O)(=O)N1CCN(Cc2cc3nc(-c4cccc5[nH]ncc45)nc(N4CCOCC4)c3s2)CC1 [Pictilisib] (partner 1 µM)
# Procedure, shortened: as §1
# RO-3306 + Olaparib = compound: C1=CC2=C(C=CC(=C2)C=C3C(=O)NC(=NCC4=CC=CS4)S3)N=C1 [RO-3306] + O=C(c1cc(Cc2n[nH]c(=O)c3ccccc23)ccc1F)N1CCN(C(=O)C2CC2)CC1 [Olaparib] (partner 8 µM)
# Procedure, shortened: as §1
# [3] = compound: O=S(=O)(c1ccccc1)N(CC(F)(F)F)c1ccc(C(O)(C(F)(F)F)C(F)(F)F)cc1 + CC(=O)c1c(C)c2cnc(Nc3ccc(N4CCNCC4)cn3)nc2n(C2CCCC2)c1=O [Palbociclib] (partner 0.5 µM)
# Procedure, shortened: as §1
Cell Line,relative viability ([1]; first compound 0.8 µM),relative viability ([1]; first compound 2.53 µM),relative viability ([1]; first compound 8 µM),relative viability (RO-3306 + Navitoclax; first compound 0.01 µM),relative viability (RO-3306 + Navitoclax; first compound 0.03162 µM),relative viability (RO-3306 + Navitoclax; first compound 0.1 µM),relative viability (RO-3306 + Navitoclax; first compound 0.3162 µM),relative viability (RO-3306 + Navitoclax; first compound 1 µM),relative viability ([2]; first compound 0.8 µM),relative viability ([2]; first compound 2.53 µM),relative viability ([2]; first compound 8 µM),relative viability (RO-3306 + Olaparib; first compound 0.01 µM),relative viability (RO-3306 + Olaparib; first compound 0.03162 µM),relative viability (RO-3306 + Olaparib; first compound 0.1 µM),relative viability (RO-3306 + Olaparib; first compound 0.3162 µM),relative viability (RO-3306 + Olaparib; first compound 1 µM),relative viability ([3]; first compound 0.8 µM),relative viability ([3]; first compound 2.53 µM),relative viability ([3]; first compound 8 µM)
NCI-H2347,0.873,0.658,0.751,0.947,0.645,1.03,0.772,0.93,0.516,0.597,0.81,0.598,0.596,0.565,0.464,0.594,0.42,0.374,0.395
NCI-H2405,0.884,0.837,0.9,0.91,0.735,0.934,0.949,0.834,0.471,0.455,0.418,0.844,0.863,0.887,0.899,0.732,0.554,0.506,0.55
NCI-H3122,0.271,0.253,0.259,1.03,1.03,0.983,1.05,1.07,0.477,0.447,0.416,0.707,0.561,0.604,0.61,0.604,0.143,0.148,0.202
PC-3 [JPC-3],1.07,0.907,0.927,1.04,0.697,0.816,0.805,0.745,0.737,0.829,0.697,1.21,1.07,1.11,1.17,1.12,,0.381,0.532
PC-14,1.1,0.893,0.932,1.11,,1.06,1.19,1.18,0.743,0.557,0.339,0.298,0.232,0.235,0.227,0.237,0.345,0.254,0.198
RERF-LC-KJ,0.787,0.749,0.773,1.36,1.03,0.815,0.684,0.997,0.557,0.453,0.5,0.888,0.902,0.837,0.835,1.08,1.1,0.909,0.905
SK-LU-1,1.06,0.748,0.736,1.08,0.837,0.774,0.926,0.832,0.531,0.454,0.594,0.425,0.415,0.458,0.663,0.425,0.358,0.423,0.376
SK-MES-1,1.02,1,0.903,1.36,1.25,1.22,1.36,1.2,0.25,0.235,0.271,0.805,0.671,0.601,0.677,0.665,0.351,0.354,0.277
SW 1573,0.709,0.75,0.636,0.838,,0.892,0.886,0.966,0.504,0.38,0.45,0.492,0.483,0.432,0.444,0.442,0.449,0.323,0.356
